Read-outs that look alike come from different tables or passages of the source.
What was measured:
[1] = mouse, in vivo
[2] = Plasma and brain pharmacokinetics after intraperitoneal administration; details: for Brain/Plasma ratio AUC0-inf / Brain/Plasma ratio Cmax: assumes brain density 1 g/ml
[3] = Core body temperature; assay type: in vivo, mouse; details: all mice treated with CBD (with CLB + VPA) ip
[4] = Monitoring for sedation via physical observation; assay type: in vivo, mouse; details: all mice treated with CBD (70-150 mg/kg with CLB 5 + VPA 75 mg/kg ip)
[5] = system: hyperthermia-induced seizures in Scn1a^A1783V/WT mice; details: cited from earlier work
[6] = in vivo; details: Scn1a^WT/WT (wild-type), mouse, ip
[7] = comedication with CLB; cited from earlier work
[8] = Double (CLB+VPA) ip, Scn1a^WT/WT mice
[9] = Single Drug, each alone ip, Scn1a^WT/WT mice
[10] = Triple (CLB+VPA+CBD) ip, Scn1a^WT/WT mice

Compound: CCCC(CCC)C(=O)O [VPA, sodium valproate]
- Brain exposure in CBD+CLB+VPA compared to CLB+VPA or VPA-alone [1]: increase

Compound: CN1C(=O)CC(=O)N(c2ccccc2)c2cc(Cl)ccc21 [CLB, clobazam]
- Exposure (AUC0-inf), triple-drug therapy (CLB+VPA+STP) vs CLB alone or CLB + VPA ([2]; Scn1a^WT/WT mice): substantially higher
- CLB stand-alone PK in Scn1a^A1783V/WT vs Scn1a^WT/WT mice ([2]; Table S2): comparable PK profile
- Exposure when adding CBD to CLB+VPA vs adding STP to CLB+VPA ([2]; mouse, in vivo): higher
- Brain Cmax, triple-drug therapy (CLB+VPA+STP) vs CLB alone and CLB + VPA ([2]; p<0.0001 vs CLB alone, p=0.0003 vs CLB + VPA): significantly higher

Compound: O=C1CC(=O)N(c2ccccc2)c2cc(Cl)ccc2N1 [N-CLB, N-desmethylclobazam]
- Brain/Plasma ratio AUC0-inf [2, 8]: 1.42
- Brain/Plasma ratio Cmax [2, 8]: 1.39
- Brain/Plasma ratio AUC0-inf [2, 9]: 2.1
- Brain/Plasma ratio Cmax [2, 9]: 1.25
- Brain/Plasma ratio AUC0-inf [2, 10]: 1.56
- Brain/Plasma ratio Cmax [2, 10]: 1.2
- Brain/Plasma ratio AUC0-inf ([2]; Triple (CLB+VPA+STP) ip, Scn1a^WT/WT mice): 2.29
- Exposure when adding CBD to CLB+VPA vs adding STP to CLB+VPA ([2]; mouse, in vivo): higher
- Fold increase of concentrations in triple-drug therapies compared to CLB+VPA ([2]; mouse, in vivo): > 2 fold

Compound: C=C(C)[C@@H]1CCC(C)=C[C@H]1c1c(O)cc(CCCCC)cc1O [CBD, cannabidiol]
- Post-injection core body temperature compared to baseline pre-injection [3]: reduction in post-injection core body temperatures
- Signs of sedation [4]: No signs of sedation
- Increase in brain exposure, CBD+CLB+VPA compared to CBD monotherapy ([2]; mouse, in vivo): two-fold

Compound: CC(C)(C)C(O)/C=C/c1ccc2c(c1)OCO2 (stereo not drawn) [STP, stiripentol]
- Protection against hyperthermia-induced seizures ([5]; STP 100 mg/kg alone): ineffective
- Brain Cmax, CLB + VPA + STP cohort vs STP alone [1]: not different
- half-life [6]: 52.1 min
- Increase of STP concentration by CLB [7]: 37%

Compound: C=C(C)[C@@H]1CCC(CO)=C[C@H]1c1c(O)cc(CCCCC)cc1O [7-OH-CBD, 7-hydroxycannabidiol]
- Brain/Plasma ratio AUC0-inf [2, 9]: 0.82
- Brain/Plasma ratio Cmax [2, 9]: 0.93
- Brain/Plasma ratio AUC0-inf [2, 10]: 1.02
- Brain/Plasma ratio Cmax [2, 10]: 0.86

Compound: C[C@H]1CNCCc2ccc(Cl)cc21 [LCS, Lorcaserin]
- Protection against hyperthermia-induced seizures ([5]; LCS 10 mg/kg alone): insufficient to prevent hyperthermia-induced seizures

Compound: CCNC(C)Cc1cccc(C(F)(F)F)c1 (stereo not drawn) [FFA, fenfluramine]
- Protection against hyperthermia-induced seizures ([5]; FFA 25 mg/kg alone): insufficient to prevent hyperthermia-induced seizures

From PMC11496002 (Epilepsia, 2024)
